Experimental findings from patent US8877741B2, “Pyrrolidine derivatives, pharmaceutical compositions and uses thereof” (Boehringer Ingelheim International GmbH, priority 2013, dated 2014) are described below.

The target in the assay is human ACC2 (Homo sapiens (Human), UniProt O00763). Put plainly: ACC2 assay, spectrophotometric 384 well assay (NADH-linked kinetic method). The assay is classed as biochemical. The conditions noted are these: human ACC2 construct lacking the 128 N-terminal amino acids; coupled lactate dehydrogenase/pyruvate kinase reaction, 340 nm, 25° C. As to the method: Spectrophotometric 384 Well Assay
Chain of human ACC2 (O00763 129-2458): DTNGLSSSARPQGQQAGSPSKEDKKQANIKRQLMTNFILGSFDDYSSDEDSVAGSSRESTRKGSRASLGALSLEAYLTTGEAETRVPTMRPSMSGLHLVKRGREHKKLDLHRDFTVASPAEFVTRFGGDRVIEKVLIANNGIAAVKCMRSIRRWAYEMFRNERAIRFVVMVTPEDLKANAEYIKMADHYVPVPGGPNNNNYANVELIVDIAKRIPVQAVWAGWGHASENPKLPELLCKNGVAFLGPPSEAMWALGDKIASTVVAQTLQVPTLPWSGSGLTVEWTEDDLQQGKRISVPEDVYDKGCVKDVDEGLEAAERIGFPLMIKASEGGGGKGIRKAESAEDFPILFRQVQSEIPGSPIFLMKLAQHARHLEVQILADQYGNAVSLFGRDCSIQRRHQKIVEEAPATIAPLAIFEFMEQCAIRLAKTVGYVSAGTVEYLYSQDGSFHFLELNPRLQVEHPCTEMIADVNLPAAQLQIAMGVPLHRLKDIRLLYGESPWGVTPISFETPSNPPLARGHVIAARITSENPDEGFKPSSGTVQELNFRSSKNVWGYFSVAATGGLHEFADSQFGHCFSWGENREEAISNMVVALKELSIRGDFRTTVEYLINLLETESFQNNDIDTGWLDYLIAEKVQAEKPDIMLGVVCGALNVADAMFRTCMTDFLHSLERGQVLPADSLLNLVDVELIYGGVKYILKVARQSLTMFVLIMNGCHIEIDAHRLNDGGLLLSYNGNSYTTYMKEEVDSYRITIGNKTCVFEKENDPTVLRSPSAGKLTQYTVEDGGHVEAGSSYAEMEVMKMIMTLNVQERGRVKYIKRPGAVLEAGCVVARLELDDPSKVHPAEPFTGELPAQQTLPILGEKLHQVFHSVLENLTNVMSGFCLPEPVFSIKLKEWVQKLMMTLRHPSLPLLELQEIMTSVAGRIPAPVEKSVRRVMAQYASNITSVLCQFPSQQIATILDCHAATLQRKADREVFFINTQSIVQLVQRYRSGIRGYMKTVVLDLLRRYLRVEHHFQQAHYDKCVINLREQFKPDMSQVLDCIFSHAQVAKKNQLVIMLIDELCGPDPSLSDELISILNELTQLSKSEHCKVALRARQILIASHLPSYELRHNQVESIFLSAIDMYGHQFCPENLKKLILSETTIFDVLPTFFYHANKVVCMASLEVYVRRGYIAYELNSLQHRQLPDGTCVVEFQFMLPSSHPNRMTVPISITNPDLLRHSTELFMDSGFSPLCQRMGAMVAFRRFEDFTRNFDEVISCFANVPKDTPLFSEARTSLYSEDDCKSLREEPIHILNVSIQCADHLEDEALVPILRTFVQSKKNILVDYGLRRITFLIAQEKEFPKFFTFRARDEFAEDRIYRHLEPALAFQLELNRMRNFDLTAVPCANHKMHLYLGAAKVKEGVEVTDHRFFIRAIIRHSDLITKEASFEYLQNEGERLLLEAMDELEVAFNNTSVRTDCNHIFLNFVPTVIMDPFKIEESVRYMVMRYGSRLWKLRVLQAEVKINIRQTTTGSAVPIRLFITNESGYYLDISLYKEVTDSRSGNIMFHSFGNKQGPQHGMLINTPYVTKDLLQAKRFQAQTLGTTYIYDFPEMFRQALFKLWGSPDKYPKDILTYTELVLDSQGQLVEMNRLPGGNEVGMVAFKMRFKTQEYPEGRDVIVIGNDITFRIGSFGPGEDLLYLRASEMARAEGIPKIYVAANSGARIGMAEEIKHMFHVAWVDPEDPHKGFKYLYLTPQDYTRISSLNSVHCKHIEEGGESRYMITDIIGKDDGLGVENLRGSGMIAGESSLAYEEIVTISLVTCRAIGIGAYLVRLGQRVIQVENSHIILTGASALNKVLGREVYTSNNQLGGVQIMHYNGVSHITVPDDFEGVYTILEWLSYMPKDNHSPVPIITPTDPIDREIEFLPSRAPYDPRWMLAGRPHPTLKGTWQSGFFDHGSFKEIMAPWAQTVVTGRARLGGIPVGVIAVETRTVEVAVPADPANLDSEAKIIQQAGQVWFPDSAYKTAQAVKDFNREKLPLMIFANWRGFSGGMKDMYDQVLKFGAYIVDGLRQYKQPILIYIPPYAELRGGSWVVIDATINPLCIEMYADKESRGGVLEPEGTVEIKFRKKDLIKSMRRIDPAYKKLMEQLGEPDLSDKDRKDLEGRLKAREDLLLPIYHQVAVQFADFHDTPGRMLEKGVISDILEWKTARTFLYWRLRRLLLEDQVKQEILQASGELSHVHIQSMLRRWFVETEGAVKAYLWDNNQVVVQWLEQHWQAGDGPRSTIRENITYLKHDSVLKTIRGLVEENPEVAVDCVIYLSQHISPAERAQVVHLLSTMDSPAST
Malonyl CoA formation by acetyl CoA carboxylases is stoichometrically linked to the consumption of ATP. ACC2 activity is measured in a NADH-linked kinetic method measuring ADP generated during the ACC reaction using a coupled lactate dehydrogenase/pyruvate kinase reaction.
For biological testing, a human ACC2 construct which lacks the 128 amino acids at the N-terminus for increased solubility (nt 385-6966 in Genbank entry AJ575592) is cloned. The protein is then expressed in insect cells using a baculoviral expression system. Protein purification is performed by anion exchange.
All compounds are dissolved in dimethyl sulfoxide (DMSO) to a concentration of 10 mM.
The enzymatic reaction is then started by addition of a mixture of NADH, acetyl Coenzyme A (both 2000 μM f.c.) and ATP (500 uM f.c.). The decrease of the optical density (slope S) is then determined at 25° C. at a wavelength of 340 nm over 15 minutes in a spectrophotometric reader.
Each assay microtiter plate contains wells with vehicle instead of compound as controls for the non-inhibited enzyme (100% CTL; ‘HIGH’) and wells without acetyl-CoA as controls for non-specific NADH degradation (0% CTL; ‘LOW’).
The slope S is used for calculation of % CTL=(S(compound)−S(‘LOW’))/(S(‘HIGH’)−S(‘LOW’))*100.
For IC50 value determination, the sample slope in the presence of the test compound after subtraction of the low controls (S(compound)−S(‘LOW’)) are used.
An IC50 value is derived from the compound slopes at different dosages after subtraction of the low controls (S(compound)−S(‘LOW’)) by non-linear regression curve fitting (equation y=(A+((B−A)/(1+((C/x)^D))))).
With `CC(=O)N[C@@H](C)c1ccc(OC2CCN(c3ncc(OCC4CC4(F)F)cc3F)C2)cc1` (stereo partly drawn) [Example 1.23], the IC50 (usually the point on the concentration scale where inhibition reaches its midpoint) turned out to be 115 nM.
For the compound `CC(=O)N[C@@H](C)c1ccc(OC2CCN(c3ccc(OCC(C)(F)F)cn3)C2)cc1` (stereo partly drawn) [Example 1.91], the IC50 came out at 661 nM.
The compound `CC(=O)N[C@@H](C)c1ccc(O[C@@H]2CCN(c3ccnc(OC(C)C)c3Cl)C2)cc1` [Example 9.80] registered an IC50 of 138 nM. This IC50 lies about 4.8-fold lower than the previous one.
As for `CC(=O)N[C@@H](C)c1ccc(O[C@@H]2CCN(c3ccnc(OC4CCCC4)c3)C2)cc1` [Example 9.28], the figure is 40 nM; as for `CC(=O)N[C@@H](C)c1ccc(O[C@@H]2CCN(c3ccnc(OCC4CC4C)c3)C2)cc1` (stereo partly drawn) [Example 9.23], 45 nM; as for `CC(=O)N[C@@H](C)c1ccc(O[C@@H]2CCN(c3cccc(N(C)CC4CC4)n3)C2)cc1` [Example 10.2], 208 nM.
The figure for `CC(C)Oc1cc(N2CCC(Oc3ccc([C@H](C)NC(=O)C4CC4)cc3)C2)ccn1` (stereo partly drawn) [Example 2.3] is 149 nM; for `C[C@H](NC(=O)Nc1ccon1)c1ccc(O[C@@H]2CCN(c3ccc(OCC4CC4(F)F)cn3)C2)cc1` (stereo partly drawn) [Example 3.1, 1-((1S)-1-(4-((3R)-1-(5-((2,2-Difluorocyclopropyl)methoxy)pyridin-2-yl)pyrrolidin-3-yloxy)phenyl)ethyl)-3-(isoxazol-3-yl)urea] it is 81 nM.
With `C[C@H](NC=O)c1ccc(O[C@@H]2CCN(c3cccc(C(F)(F)F)n3)C2)cc1` [Example 12, N—((S)-1-(4-((R)-1-(6-(Trifluoromethyl)pyridin-2-yl)pyrrolidin-3-yloxy)phenyl)ethyl) formamide], the IC50 was 888 nM.
Consider `C[C@H](NC(=O)c1ccnc(F)c1)c1ccc(OC2CCN(c3cccc(C(F)(F)F)n3)C2)cc1` (stereo partly drawn) [Example 2.44], for which 991 nM corresponded to half-maximal inhibition (IC50).
Consider `C[C@H](NC(=O)N1CCOCC1)c1ccc(OC2CCN(c3ccc(OCC4CC4(F)F)cn3)C2)cc1` (stereo partly drawn) [Example 3.10], for which half-maximal inhibition (IC50) was put at 112 nM. This IC50 is about 8.8-fold lower than that of the compound before.
`CC(=O)N[C@@H](C)c1ccc(OC2CCN(c3ncc(OCC4CC4(F)F)cc3Cl)C2)cc1` (stereo partly drawn) [Example 1.77] showed an IC50 of 29 nM.
Regarding `CC(=O)N[C@@H](C)c1ccc(O[C@@H]2CCN(c3ccnc(C4CC4)c3F)C2)cc1` [Example 15, N—((S)-1-(4-((R)-1-(2-cyclopropyl-fluoropyridin-4-yl)pyrrolidin-3-yloxy)phenyl)-ethyl)-acetamide], half-maximal inhibition (IC50) was put at 245 nM.
The figure for `COc1c(N2CC[C@@H](Oc3ccc([C@H](C)NC(C)=O)cc3)C2)ccnc1OCC(C)C` [Example 1.120] is 32 nM; for `Cc1ncoc1C(=O)N[C@@H](C)c1ccc(OC2CCN(c3cccc(C(F)(F)F)n3)C2)cc1` (stereo partly drawn) [Example 2.39] it is 610 nM; for `CC(=O)N[C@@H](C)c1ccc(OC2CCN(c3cccc(C(C)(C)C)n3)C2)cc1` (stereo partly drawn) [Example 1.59] it is 150 nM.
As for `CC(=O)N[C@@H](C)c1ccc(O[C@@H]2CCN(c3ccnc(OCC(C)O)c3F)C2)cc1` (stereo partly drawn) [Example 9.74], the figure is 220 nM; as for `C[C@H](NC(=O)C(C)(C)F)c1ccc(OC2CCN(c3ccnc(OCC4CC4)c3)C2)cc1` (stereo partly drawn) [Example 2.80], 122 nM.
`C[C@H](NC(=O)N1CCOCC1)c1ccc(OC2CCN(c3ccnc(OCC4CC4(F)F)c3F)C2)cc1` (stereo partly drawn) [Example 5.5]: the IC50 came to 310 nM.
As for `CC(=O)N[C@@H](C)c1ccc(O[C@@H]2CCN(c3cc(OCC(F)F)ncc3F)C2)cc1` [Example 9.70], the figure is 124 nM; as for `CCCOc1nccc(N2CC[C@@H](Oc3ccc([C@H](C)NC(C)=O)cc3)C2)c1C` [Example 9.55], 59 nM.
Compound `CC(=O)N[C@@H](C)c1ccc(O[C@@H]2CCN(c3ccc(OCC4CC4(F)F)cn3)C2)cc1` (stereo partly drawn) [Example 1.1, N—((1S)-1-(4-((3R)-1-(5-((2,2-Difluorocyclopropyl)methoxy)pyridin-2-yl)pyrrolidin-3-yloxy)phenyl)ethyl)acetamide] yielded an IC50 of 46 nM. The IC50 values of the last two compounds are within 1.5-fold of each other.
For the compound `C[C@H](NC(=O)c1cncs1)c1ccc(O[C@@H]2CCN(c3ccnc(OC4CCOC4)c3)C2)cc1` (stereo partly drawn) [Example 9.65], the midpoint of inhibition, the IC50, lay at 85 nM.
The compound `CC(=O)N[C@@H](C)c1ccc(O[C@@H]2CCN(c3ccc(OCCCF)cn3)C2)cc1` [Example 11.3] registered a concentration for half-maximal inhibition (IC50) of 131 nM.
For the compound `CC(=O)N[C@@H](C)c1ccc(OC2CCN(c3ncc(OCC4CC4)cc3C)C2)cc1` (stereo partly drawn) [Example 1.41], the IC50 came to 154 nM.
The figure for `CC(=O)N[C@@H](C)c1ccc(O[C@@H]2CCN(c3ncc(C(F)(F)F)cc3F)C2)cc1` [Example 8.3] is 755 nM.
As for `CC(=O)N[C@@H](C)c1ccc(O[C@@H]2CCN(c3ccnc(OCc4ccccn4)c3)C2)cc1` [Example 9.33], the figure is 535 nM; as for `CCCOc1ccnc(N2CC[C@@H](Oc3ccc([C@H](C)NC(C)=O)cc3)C2)c1F` [Example 9.68], 251 nM.
As for `CCCN(C)c1cccc(N2CC[C@@H](Oc3ccc([C@H](C)NC(C)=O)cc3)C2)n1` [Example 10.5], the figure is 182 nM; as for `COc1c(N2CC[C@@H](Oc3ccc([C@H](C)NC(C)=O)cc3)C2)ccnc1OCC1CC1(F)F` (stereo partly drawn) [Example 14.2], 45 nM.
`C[C@H](NC(=O)c1cnco1)c1ccc(OC2CCN(c3cccc(C(F)(F)F)n3)C2)cc1` (stereo partly drawn) [Example 2.122] gave an IC50 of 85 nM.
As for `CCC(=O)Nc1nc(C)c(C(=O)N[C@@H](C)c2ccc(O[C@@H]3CCN(c4ccnc(NCC5CC5)c4Cl)C3)cc2)s1` [Example 1.140], the figure is 65 nM; as for `CC(=O)N[C@@H](C)c1ccc(O[C@@H]2CCN(c3cccc(N4CCC(C)C4)n3)C2)cc1` (stereo partly drawn) [Example 10.10], 115 nM.
The figure for `CO[C@@H](C)COc1cc(N2CC[C@@H](Oc3ccc([C@H](C)NC(C)=O)cc3)C2)ccn1` [Example 9.44] is 639 nM; for `C[C@H](NC(=O)C1CC1)c1ccc(O[C@@H]2CCN(c3ccnc(O[C@@H]4CCOC4)c3)C2)cc1` [Example 9.43] it is 184 nM.
As for `CC(=O)N[C@@H](C)c1ccc(O[C@@H]2CCN(c3ccnc(OCC4CC4C#N)c3)C2)cc1` (stereo partly drawn) [Example 9.24], the figure is 55 nM; as for `CC(=O)N[C@@H](C)c1ccc(O[C@@H]2CCN(c3ccnc(N(C)CC(F)F)c3F)C2)cc1` [Example 1.108], 42 nM; as for `CC#CCCOc1cc(N2CC[C@@H](Oc3ccc([C@H](C)NC(C)=O)cc3)C2)ccn1` [Example 9.5], 390 nM.
Compound `C[C@H](NC(=O)c1cncs1)c1ccc(OC2CCN(c3ccnc(N4CCC(F)(F)C4)c3F)C2)cc1` (stereo partly drawn) [Example 2.125] showed an IC50 of 60 nM.
As for `COc1c(N2CC[C@@H](Oc3ccc([C@H](C)NC(C)=O)cc3)C2)ccnc1OCC(C)(C)O` [Example 1.151], the figure is 504 nM; as for `CC(=O)N[C@@H](C)c1ccc(O[C@@H]2CCN(c3cccc(N4CCCC4C)n3)C2)cc1` (stereo partly drawn) [Example 10.33], 133 nM.
As for `C[C@H](NC(=O)[C@@H](C)O)c1ccc(OC2CCN(c3ccnc(OCC(F)F)c3)C2)cc1` (stereo partly drawn) [Example 2.105], the IC50 was 784 nM.
For the compound `CCOc1nccc(N2CC[C@@H](Oc3ccc([C@H](C)NC(C)=O)cc3)C2)c1F` [Example 9.86], the concentration for half-maximal inhibition (IC50) stood at 187 nM.
The figure for `C[C@H](NC(=O)N(C)C)c1ccc(OC2CCN(c3ccnc(OCC(F)F)c3F)C2)cc1` (stereo partly drawn) [Example 5.9] is 73 nM.
As for `C[C@H](NC(=O)c1cncs1)c1ccc(OC2CCN(c3cccc(C(F)(F)F)n3)C2)cc1` (stereo partly drawn) [Example 2.46], the figure is 60 nM.
The compound `CCCOc1cc(N2CC[C@@H](Oc3ccc([C@H](C)NC(=O)C4CC4)cc3)C2)ccn1` [Example 9.37] came in with an IC50 of 385 nM.
The figure for `CC(=O)N[C@@H](C)c1ccc(O[C@@H]2CCN(c3ccnc(OCC(C)(C)C)c3)C2)cc1` [Example 9.29] is 30 nM; for `CC(=O)N[C@@H](C)c1ccc(O[C@@H]2CCN(c3ccnc(OCC4CCOC4)c3)C2)cc1` (stereo partly drawn) [Example 9.26] it is 125 nM; for `CSc1ccc(N2CCC(Oc3ccc([C@H](C)NC(C)=O)cc3)C2)cn1` (stereo partly drawn) [Example 1.83] it is 2990 nM.
Take `C[C@H](NC(=O)C(F)(F)C(F)(F)F)c1ccc(O[C@@H]2CCN(c3cccc(C(F)(F)F)n3)C2)cc1` [Example 7.1, 2,2,3,3,3-Pentafluoro-N—((S)-1-(4-((R)-1-(6-(trifluoromethyl)pyridin-2-yl)pyrrolidin-3-yloxy)phenyl)ethyl)propanamide]: the IC50 amounted to 400 nM.
As for `C[C@H](NC(=O)C(C)(C)F)c1ccc(OC2CCN(c3ccnc(OCC(F)F)c3)C2)cc1` (stereo partly drawn) [Example 2.109], the figure is 453 nM; as for `CC(=O)N[C@@H](C)c1ccc(O[C@@H]2CCN(c3ccnc(OCc4ccc(F)cc4)c3)C2)cc1` [Example 9.6], 90 nM.
`CC(=O)N[C@@H](C)c1ccc(O[C@@H]2CCN(c3ccc(OCC4CC4)cn3)C2)cc1` [Example 1.96] yielded an IC50 of 114 nM.
The figure for `COc1c(N2CC[C@@H](Oc3ccc([C@H](C)NC(C)=O)cc3)C2)ccnc1OCCC1CC1` [Example 1.139] is 37 nM.
